Experiment [1] has as its target T1, CDK9/cyclin T1 (Homo sapiens) (UniProt O60563+P50750). The experiment can be described thus: Inhibition of human recombinant CDK9/cyclin T expressed in baculovirus-infected Sf9 cells assessed as enzyme residual activity using YSPTSPSYSPTSPSYSPTSPSKKKK as substrate at 1 uM incubated for 30 mins in presence of ATP by ADP-Glo kinase assay. For orientation: In ADP-Glo the light output rises with the ADP produced.

In experiment [2] the target is Dual specificity tyrosine-phosphorylation-regulated kinase 1A (Rattus norvegicus) (UniProt Q63470). The experiment can be described thus: Inhibition of recombinant rat DYRK1A kinase domain (1 to 499 residues) expressed in bacteria assessed as enzyme residual activity using KKISGRLSPIMTEQ as substrate at 10 uM incubated for 30 mins in presence of ATP by ADP-Glo kinase assay.

For experiment [3], the target named is Casein kinase I isoform epsilon (Homo sapiens) (UniProt P49674). The experiment can be described thus: Inhibition of human recombinant CK1 epsilon expressed in baculovirus-infected Sf9 cells assessed as enzyme residual activity using RRKHAAIGSpAYSITA as substrate at 1 uM incubated for 30 mins in presence of ATP by ADP-Glo kinase assay.
Sequence of Casein kinase I isoform epsilon (Homo sapiens) (P49674 whole entry, looked up, canonical isoform): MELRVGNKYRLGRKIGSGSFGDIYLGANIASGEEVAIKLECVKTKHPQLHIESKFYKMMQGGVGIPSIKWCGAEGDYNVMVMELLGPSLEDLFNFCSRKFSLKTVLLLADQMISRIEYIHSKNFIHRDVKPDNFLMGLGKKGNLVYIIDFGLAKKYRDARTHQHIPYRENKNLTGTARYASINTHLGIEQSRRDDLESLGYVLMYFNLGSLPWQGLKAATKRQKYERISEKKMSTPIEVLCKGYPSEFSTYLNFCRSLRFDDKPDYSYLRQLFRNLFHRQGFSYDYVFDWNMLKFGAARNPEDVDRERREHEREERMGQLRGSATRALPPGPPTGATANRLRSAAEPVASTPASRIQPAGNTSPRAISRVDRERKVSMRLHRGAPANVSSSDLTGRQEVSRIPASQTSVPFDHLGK
For experiment [4], the target named is Glycogen synthase kinase-3 beta (Homo sapiens) (UniProt P49841). The experiment can be described thus: Inhibition of human recombinant GSK-3 beta expressed in baculovirus-infected Sf9 cells assessed as enzyme residual activity using YRRAAVPPSPSLSRHSSPHQSpEDEEE as substrate at 10 uM incubated for 30 mins in presence of ATP by ADP-Glo kinase assay.
Sequence of Glycogen synthase kinase-3 beta (Homo sapiens) (P49841 whole entry, looked up): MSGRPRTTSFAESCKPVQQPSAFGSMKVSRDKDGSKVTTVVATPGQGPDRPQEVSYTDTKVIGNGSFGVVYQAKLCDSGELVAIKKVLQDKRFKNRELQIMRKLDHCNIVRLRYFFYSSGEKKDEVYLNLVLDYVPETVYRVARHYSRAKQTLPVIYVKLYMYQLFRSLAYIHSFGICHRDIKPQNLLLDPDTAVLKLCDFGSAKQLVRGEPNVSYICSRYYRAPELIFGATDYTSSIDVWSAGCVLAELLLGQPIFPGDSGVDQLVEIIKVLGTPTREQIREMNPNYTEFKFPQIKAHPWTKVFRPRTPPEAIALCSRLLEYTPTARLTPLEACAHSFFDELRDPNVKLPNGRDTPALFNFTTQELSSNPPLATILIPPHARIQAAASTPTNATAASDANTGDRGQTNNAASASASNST
For experiment [5], the target named is T2, Serine/threonine-protein kinase pim-1 (Homo sapiens, UniProt P11309). The experiment can be described thus: Inhibition of human recombinant PIM-1 expressed in bacteria assessed as enzyme residual activity using histone H1 as substrate at 10 uM incubated for 30 mins in presence of ATP by ADP-Glo kinase assay.
T2 sequence (P11309 whole entry, looked up, the tested form may be a part): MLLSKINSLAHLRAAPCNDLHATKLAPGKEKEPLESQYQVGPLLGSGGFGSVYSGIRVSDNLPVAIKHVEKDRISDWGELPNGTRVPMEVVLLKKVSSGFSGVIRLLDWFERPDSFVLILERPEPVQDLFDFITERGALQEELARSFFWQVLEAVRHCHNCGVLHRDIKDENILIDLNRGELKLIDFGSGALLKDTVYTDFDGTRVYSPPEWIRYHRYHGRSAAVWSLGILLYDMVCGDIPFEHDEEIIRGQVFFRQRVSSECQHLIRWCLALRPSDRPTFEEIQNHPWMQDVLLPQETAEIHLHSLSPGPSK
Experiment [6] has as its target Dual specificity tyrosine-phosphorylation-regulated kinase 1A (Rattus norvegicus) (UniProt Q63470). Nature of the experiment: Inhibition of recombinant rat DYRK1A kinase domain (1 to 499 residues) expressed in bacteria assessed as enzyme residual activity using KKISGRLSPIMTEQ as substrate at 1 uM incubated for 30 mins in presence of ATP by ADP-Glo kinase assay.
Experiment [7] concerns the target Dual specificity protein kinase CLK1 (Mus musculus) (UniProt P22518). Nature of the experiment: Inhibition of recombinant mouse CLK1 expressed in bacteria assessed as enzyme residual activity using GRSRSRSRSRSR as substrate at 1 uM incubated for 30 mins in presence of ATP by ADP-Glo kinase assay.
Experiment [8] has as its target Casein kinase I isoform epsilon (Homo sapiens) (UniProt P49674). Nature of the experiment: Inhibition of human recombinant CK1 epsilon expressed in baculovirus-infected Sf9 cells assessed as enzyme residual activity using RRKHAAIGSpAYSITA as substrate at 10 uM incubated for 30 mins in presence of ATP by ADP-Glo kinase assay.
The target in experiment [9] is Glycogen synthase kinase-3 beta (Homo sapiens) (UniProt P49841). The experiment can be described thus: Inhibition of human recombinant GSK-3 beta expressed in baculovirus-infected Sf9 cells assessed as enzyme residual activity using YRRAAVPPSPSLSRHSSPHQSpEDEEE as substrate at 1 uM incubated for 30 mins in presence of ATP by ADP-Glo kinase assay.
Experiment [10] addresses Dual specificity protein kinase CLK1 (Mus musculus) (UniProt P22518). The experiment can be described thus: Inhibition of recombinant mouse CLK1 expressed in bacteria assessed as enzyme residual activity using GRSRSRSRSRSR as substrate at 10 uM incubated for 30 mins in presence of ATP by ADP-Glo kinase assay.
For experiment [11], the target named is T2, Serine/threonine-protein kinase pim-1. The experiment can be described thus: Inhibition of human recombinant PIM-1 expressed in bacteria assessed as enzyme residual activity using histone H1 as substrate at 1 uM incubated for 30 mins in presence of ATP by ADP-Glo kinase assay.
The target in experiment [12] is T1, CDK9/cyclin T1 (Homo sapiens). Nature of the experiment: Inhibition of human recombinant CDK9/cyclin T expressed in baculovirus-infected Sf9 cells assessed as enzyme residual activity using YSPTSPSYSPTSPSYSPTSPSKKKK as substrate at 10 uM incubated for 30 mins in presence of ATP by ADP-Glo kinase assay.
Experiment [13] has as its target T3, Cyclin-dependent kinase 5/CDK5 activator 1 (Homo sapiens) (UniProt Q00535+Q15078). Nature of the experiment: Inhibition of human recombinant CDK5/p25 expressed in bacteria assessed as enzyme residual activity using histone H1 as substrate at 10 uM incubated for 30 mins in presence of ATP by ADP-Glo kinase assay.
Experiment [14] has as its target T3, Cyclin-dependent kinase 5/CDK5 activator 1 (Homo sapiens). The experiment can be described thus: Inhibition of human recombinant CDK5/p25 expressed in bacteria assessed as enzyme residual activity using histone H1 as substrate at 1 uM incubated for 30 mins in presence of ATP by ADP-Glo kinase assay.
Experiment [15] concerns the target T4, Serine/threonine-protein kinase haspin (Homo sapiens, UniProt Q8TF76).
T4 sequence (Q8TF76 whole entry): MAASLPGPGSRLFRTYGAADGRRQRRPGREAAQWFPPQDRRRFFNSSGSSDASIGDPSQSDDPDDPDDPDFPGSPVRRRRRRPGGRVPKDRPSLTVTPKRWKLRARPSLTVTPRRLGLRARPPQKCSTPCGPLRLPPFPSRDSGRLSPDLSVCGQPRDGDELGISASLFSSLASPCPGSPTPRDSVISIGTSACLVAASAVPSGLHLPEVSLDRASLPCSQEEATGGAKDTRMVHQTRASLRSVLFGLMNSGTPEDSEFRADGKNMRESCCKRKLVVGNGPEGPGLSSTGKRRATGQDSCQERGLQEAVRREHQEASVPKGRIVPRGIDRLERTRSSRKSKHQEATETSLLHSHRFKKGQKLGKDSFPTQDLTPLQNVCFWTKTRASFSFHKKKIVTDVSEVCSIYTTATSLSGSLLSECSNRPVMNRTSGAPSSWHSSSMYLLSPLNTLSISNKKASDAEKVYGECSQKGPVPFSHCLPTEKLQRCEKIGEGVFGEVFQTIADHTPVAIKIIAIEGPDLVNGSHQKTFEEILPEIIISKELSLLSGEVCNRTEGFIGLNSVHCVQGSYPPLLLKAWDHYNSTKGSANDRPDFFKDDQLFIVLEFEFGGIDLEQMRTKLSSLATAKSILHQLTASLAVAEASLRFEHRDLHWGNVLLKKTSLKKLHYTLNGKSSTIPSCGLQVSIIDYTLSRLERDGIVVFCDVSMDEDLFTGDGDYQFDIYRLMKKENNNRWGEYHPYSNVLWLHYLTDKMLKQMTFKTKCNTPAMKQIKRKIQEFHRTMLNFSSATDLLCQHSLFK
The experiment can be described thus: Inhibition of recombinant human Haspin kinase domain (470 to 798 residues) expressed in bacteria using histone H3 (1 to 21) peptide as substrate incubated for 30 mins in presence of ATP by ADP-Glo kinase assay.

T3 sequence (Q00535 whole entry): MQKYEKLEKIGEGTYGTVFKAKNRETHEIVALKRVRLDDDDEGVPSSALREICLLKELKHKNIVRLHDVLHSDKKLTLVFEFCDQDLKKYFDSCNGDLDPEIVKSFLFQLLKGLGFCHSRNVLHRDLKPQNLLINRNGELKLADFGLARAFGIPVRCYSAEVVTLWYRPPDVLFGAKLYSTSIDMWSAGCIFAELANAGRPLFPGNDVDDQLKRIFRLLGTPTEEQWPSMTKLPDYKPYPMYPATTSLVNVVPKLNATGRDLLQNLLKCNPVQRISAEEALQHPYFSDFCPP
T3 sequence (Q15078 99-307 partner limits assumed): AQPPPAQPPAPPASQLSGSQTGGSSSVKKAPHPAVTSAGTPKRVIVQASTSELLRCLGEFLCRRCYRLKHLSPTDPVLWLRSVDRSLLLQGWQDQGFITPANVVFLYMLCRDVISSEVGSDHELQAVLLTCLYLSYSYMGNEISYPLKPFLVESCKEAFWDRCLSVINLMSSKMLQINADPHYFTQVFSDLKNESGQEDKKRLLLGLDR
Sequence of Dual specificity protein kinase CLK1 (Mus musculus) (P22518 whole entry, looked up, canonical isoform): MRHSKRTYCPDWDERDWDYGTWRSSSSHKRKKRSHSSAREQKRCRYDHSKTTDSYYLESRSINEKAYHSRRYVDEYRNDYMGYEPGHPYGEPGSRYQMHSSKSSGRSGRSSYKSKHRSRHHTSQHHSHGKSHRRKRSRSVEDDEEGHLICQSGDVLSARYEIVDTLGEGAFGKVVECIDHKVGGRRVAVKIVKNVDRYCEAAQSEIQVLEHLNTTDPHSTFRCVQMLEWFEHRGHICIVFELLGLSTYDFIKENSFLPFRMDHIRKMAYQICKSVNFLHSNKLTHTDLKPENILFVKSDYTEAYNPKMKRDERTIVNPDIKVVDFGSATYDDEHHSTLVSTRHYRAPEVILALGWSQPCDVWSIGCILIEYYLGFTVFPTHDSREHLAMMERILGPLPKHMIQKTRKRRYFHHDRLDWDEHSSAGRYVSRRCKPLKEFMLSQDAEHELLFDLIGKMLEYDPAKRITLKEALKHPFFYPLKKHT

Consider `CCN(CC)Cc1c[nH]c2cc3cnccc3cc12`, for which the Activity in [1] was determined as 86%; in experiment [2] it was 76%; in experiment [3] it was 98%; in experiment [4], 77%; in [5] it was 47%; in experiment [6], 89%. For the same compound, the Activity in [7] was determined as 89%; in [8] it was 100%; in experiment [9] it was 79%; in experiment [10], 84%; in experiment [11], 65%; in experiment [12], 51%. For the same compound, the Activity in experiment [13] was 100%.

In the case of `NCc1c[nH]c2cc3cnccc3cc12`, the Activity was 93% in experiment [1]; 62% in [2]; 100% in experiment [14]; 99% in [3]; 80% in experiment [4]; 84% in experiment [5]. The Activity in experiment [6] was 77%; in experiment [7] it was 99%; in [8] it was 96%; in experiment [9] it was 94%; in experiment [10] it was 86%; in experiment [11] it was 97%. The figures for the Activity in experiment [12] and in experiment [13] were 58% and 94%, respectively.

In general, IC50 refers to the concentration that inhibits the measured activity by half. Turning to `c1ccc(-c2c[nH]c3cc4cnccc4cc23)cc1`, the Activity turned out to be 83% in experiment [1]; 19% in [2]; 97% in experiment [14]; 100% in experiment [3]; 77% in experiment [4]; 18% in experiment [5]. Moreover, the Activity in [6] turned out to be 53%; in [7] it was 74%; in [8], 88%; in experiment [9], 66%; in experiment [10], 44%; in [11] it was 53%. Moreover, the Activity amounted to 63% in [12] and 73% in [13]. Also, the IC50 in experiment [15] turned out to be 482 nM.

Consider `c1cc2cc3cc[nH]c3cc2cn1`, for which the Activity worked out at 76% in experiment [1]; 37% in experiment [2]; 100% in [14]; 97% in experiment [3]; 100% in experiment [4]; 45% in experiment [5]. Also, the Activity in [6] was 99%; in experiment [7], 87%; in experiment [8], 90%; in experiment [9] it was 100%; in experiment [10], 67%; in [11] it was 90%. Moreover, the Activity worked out at 34% in experiment [12] and 98% in experiment [13].

With `CN(C)Cc1c[nH]c2cc3cnccc3cc12`, the Activity stood at 57% in experiment [1]; 67% in experiment [2]; 100% in [14]; 100% in experiment [3]; 66% in [4]; 67% in experiment [5]. Further, the Activity in experiment [6] worked out at 74%; in experiment [7], 91%; in experiment [8], 99%; in experiment [9], 78%; in experiment [10], 62%; in [11], 66%. Also, the Activity was found to be 18% in experiment [12] and 97% in experiment [13].

Consider `Clc1c[nH]c2cc3cnccc3cc12`, for which the Activity worked out at 62% in [1]; 21% in [2]; 100% in [14]; 100% in experiment [3]; 82% in experiment [4]; 16% in experiment [5]. The Activity in experiment [6] was found to be 61%; in [7] it was 78%; in experiment [8], 82%; in experiment [9], 92%; in experiment [10], 39%; in experiment [11], 63%. Also, the Activity in [12] is 25%; in [13], 68%.

As to `COc1ncc2cc3cnccc3c([N+](=O)[O-])c2n1`, the Activity in experiment [2] was 20%; in experiment [4], 29%; in [5] it was 55%; in experiment [8] it was 53%; in experiment [10], 8%; in [12] it was 43%. In addition, in experiment [13], the Activity is 80%.

In the case of `Nc1cc2cc3ccncc3cc2[nH]1`, the Activity turned out to be 74% in [1]; 39% in experiment [2]; 89% in [14]; 79% in [3]; 64% in experiment [4]; 88% in [5]. The Activity in [6] was found to be 100%; in experiment [7], 73%; in experiment [8] it was 52%; in [9], 69%; in [10], 20%; in [11] it was 100%. Moreover, the Activity in experiment [12] came out at 27%; in [13], 99%.

`OCc1c[nH]c2cc3cnccc3cc12`: the Activity in experiment [1] came out at 81%; in experiment [2] it was 62%; in experiment [3], 100%; in experiment [4], 81%; in experiment [5] it was 100%; in experiment [6] it was 77%. Further, the Activity in experiment [7] was 96%; in [8], 98%; in experiment [9], 84%; in experiment [10], 55%; in experiment [11], 100%; in experiment [12] it was 55%. The Activity in experiment [13] was 94%. Further, in experiment [15], the IC50 is 819 nM.

`CNCc1c[nH]c2cc3cnccc3cc12`: the Activity in experiment [1] was 58%; in experiment [2] it was 92%; in experiment [14], 93%; in experiment [3] it was 100%; in [4] it was 83%; in [5] it was 90%. For the same compound, the Activity in [7] stood at 95%; in experiment [8], 98%; in [9], 87%; in [10], 74%; in experiment [11] it was 89%; in experiment [12] it was 37%. Also, the Activity in [13] was determined as 88%.

Consider `CCNCc1c[nH]c2cc3cnccc3cc12`, for which the Activity in [1] was 74%; in experiment [2], 63%; in experiment [3], 100%; in experiment [4] it was 80%; in experiment [5], 74%; in [6], 80%. Moreover, the Activity is 94% in [7]; 100% in experiment [8]; 76% in [9]; 80% in [10]; 76% in [11]; 37% in experiment [12]. Moreover, in experiment [13], the Activity stood at 89%.

Values taken from ChEMBL document CHEMBL5550090, “Synthesis and biological evaluation of 1H-pyrrolo[3,2-g]isoquinolines” (Bioorg Med Chem, 2024).
